Results taken from ChEMBL document CHEMBL3045481, “Insecticide-induced resurgence of the whitebacked planthopper Sogatella furcifera (Horvath) (Hemiptera: Delphacidae) on rice varieties with different levels of resistance” (Crop Prot, 2011).
Activity calls are given as the source filed them. The rule behind the calls is not given here.

Experiments:
[1] = tested on: Sogatella furcifera; test: Insecticidal activity against Sogatella furcifera on insect-resistanct rice plant PR116 assessed as nymphal survival at 0.0018% concentration (reference value: 70.28%); assay type: functional
[2] = tested on: Sogatella furcifera; test: Insecticidal activity against Sogatella furcifera on insect-resistanct rice plant PR116 assessed as reproduction at 0.0018% concentration; assay type: functional, organism-based
[3] = tested on: Sogatella furcifera; test: Insecticidal activity against adult Sogatella furcifera on insect-sensitive rice plant ARC6248 assessed as high mortality at 0.0035% concentration; assay type: functional, organism-based
[4] = tested on: Sogatella furcifera; test: Insecticidal activity against adult Sogatella furcifera on insect-resistanct rice plant PR116 assessed as high mortality at 0.0035% concentration; assay type: functional, organism-based
[5] = tested on: Sogatella furcifera; test: Insecticidal activity against Sogatella furcifera on insect-sensitive rice plant ARC6248 assessed as growth index at 0.0018% concentration (reference value: 2.38%); assay type: functional
[6] = tested on: Sogatella furcifera; test: Insecticidal activity against Sogatella furcifera on insect-resistanct rice plant PR116 assessed as resurgence ratio at 0.100% concentration; assay type: functional
[7] = tested on: Sogatella furcifera; test: Insecticidal activity against Sogatella furcifera on insect-sensitive rice plant ARC6248 assessed as reproduction at 0.0018% concentration; assay type: functional, organism-based
[8] = tested on: Sogatella furcifera; test: Insecticidal activity against Sogatella furcifera on insect-resistanct rice plant PR116 assessed as growth index at 0.0018% concentration (reference value: 6.02%); assay type: functional
[9] = tested on: Sogatella furcifera; test: Insecticidal activity against Sogatella furcifera on insect-sensitive rice plant ARC6248 assessed as nymphal duration at 0.0018% concentration (reference value: 14.48 days); assay type: functional
[10] = tested on: Sogatella furcifera; test: Insecticidal activity against Sogatella furcifera on insect-sensitive rice plant ARC6248 assessed as resurgence ratio at 0.100% concentration; assay type: functional
[11] = tested on: Sogatella furcifera; test: Insecticidal activity against Sogatella furcifera on insect-resistanct rice plant PR116 assessed as nymphal duration at 0.0018% concentration (reference value: 11.75 days); assay type: functional
[12] = tested on: Sogatella furcifera; test: Insecticidal activity against Sogatella furcifera on insect-sensitive rice plant ARC6248 assessed as nymphal survival at 0.0018% concentration (reference value: 34.17%); assay type: functional

O=[N+]([O-])/N=C1\NCCN1Cc1ccc(Cl)nc1 [IMIDACLOPRID]
Survival [1]: 69.72% | inhibition [2]: inactive | inhibition [3]: Active | inhibition [4]: Active | growth inhibition (GI) [5]: 2.48% | Ratio [6]: <1 | inhibition [7]: inactive | growth inhibition (GI) [8]: 5.91% | Time [9]: 14.46 days | Ratio [10]: <1 | Time [11]: 11.85 days | Survival [12]: 35.56%
